Measurements taken from patent US20200108032A1, “USE OF ISOFERULIC ACID, ISOFERULIC ACID-CONTAINING TRADITIONAL CHINESE MEDICINE EXTRACT AND CIMICIFUGAE RHIZOMA” (BEIJING DITAN HOSPITAL, CAPITAL MEDICAL UNIVERSITY, priority 2017, published 2020).

Columns and labels:
Assay type in all cases: in vivo, C57BL/6 mice
[1] = test system: serum cytokines TNF-α, IL-12, IL-6, MCP-1, IFN-γ; assay: Serum cytokine secretion in mouse model of ConA hepatitis; conditions: MEAN ± SEM
Protocol: The test materials and animals were the same as those in Experimental Example 1.
Grouping: C57BL/6 mice, male, 18-20 g, after 1 day of adaptive breeding, the mice were randomly divided into 6 groups: normal control group; ConA model group, Cimicifugae rhizoma compatibility group, Cimicifugae rhizoma group, Cimicifugae rhizoma total phenolic acid group and isoferulic acid group.
Model preparation and drug administration: except the normal control group, mice were injected intravenously once at a dose of ConA 15 mg/kg. The dosages of each drug group were the same as those of Experimental Example 1.
(3) The effects of drugs in each treatment group on serum cytokine secretion in ConA mice were examined. Six mice from each group. Peripheral blood was collected 3 hours after ConA injection and serum was separated to detect the secretion of cytokines TNF-α, IL-12, IL-6 and MCP-1. Serum was separated 10 hours after ConA injection to detect cells factor IFN-γ secretion.

CIA arthritis mice = assay: Micro-CT of joint structure / bone damage in CIA mice; conditions: 21 days after second immunization, MEAN ± SEM
Description: (§1) Test materials and animals: Consistent with Experimental Example 3. Anti-type II collagen antibody ELISA kit was purchased from Chondrex, Cytokine & Chemokine 36-Plex Mouse ProcartaPlex™ Panel 1A cytokine and chemokine detection kit was purchased from ThermoFisher.
(§2) Model preparation and drug administration: the drug dosage of each treatment group was the same as that of Experimental Example 3. After 21 days of the second immunization, the mice were anesthetized.
(1) Micro-CT technology was used to examine the effect of each drug group on the joint structure of CIA mice. After taking 3 mice from each group, the right hind limbs were taken immediately after neck dissection and fixed in 4% neutral formalin. After 2-3 days of fixation, a micro-CT scan was performed using a live animal imaging system. Extraction site: extracted the data of the area above the tibial plaque plate of the right hind limb of the mouse. 3 sets of data were taken. Size selection: the upper part of the tibial plaque plate (0.25*0.25*0.25); measurement indicators of the extracted bones: bone density, bone volume, bone volume fraction and number of bone trabeculae.

serum cytokines = assay: Serum cytokines in CIA arthritis mice (multi-factor detection); conditions: MEAN ± SEM
Description: as §1, §2
(3) The effects of each drug group on cytokine secretion in serum and joint tissues of CIA mice were measured. Seven mice from each group were examined; peripheral blood was collected and separated from serum. Cytokines in serum were detected by multiple factors: IFN-γ, IL-6, IL-9, IL-12, IL-17A, IP-10, MCP-1, MCP-3. MIP-1α, MIP-1β, Eotaxin, and G-CSF; the right hind limb knees, joints and claws were taken and stored in liquid nitrogen for quick freezing, then homogenized and extracted protein. Multi-factor detection of cytokines in tissues: IL-9, IL-18 and MIP-2 secretion.

[2] = test system: CD48-CD11b+ positive granulocytes; assay: Proportion of granulocytes in CIA arthritis mice (flow cytometry); conditions: CD48-CD11b+ granulocytes to white blood cells; 21 days after second immunization; MEAN ± SEM
Description: Test materials and animals: CD48 PE and CD11b FITC antibodies were purchased from BD Pharmingen; RBC Lysis Buffer was purchased from Biolegend of the United States; other required reagents were the same as in Experimental Example 3.
Model preparation and drug administration: the administration dose of each treatment group was the same as that of Experimental Example 3. 21 days after the second immunization, the mice were anesthetized.
Animal: C57BL/6 mouse, purchased from Beijing Huafukang Biotechnology Co., Ltd.
Preparation of bone marrow single cell suspension: After anesthesia of C57BL/6 mice, the two pairs of femur and tibia of the mouse were separated, PBS was pipetted with a 2 mL syringe to flush the bone marrow cells into a flow tube, and pipetted repeatedly to obtain the bone marrow single cell suspension. The bone marrow was filtered into a flow tube with a 400-mesh strainer, discarded the supernatant after centrifugation, added 2 mL of RBC Lysis Buffer and lysed at room temperature for 15 min. Discarded the supernatant by centrifugation, harvested the bone marrow cells, resuspended by adding 1 mL of PBS, and repeatedly mixing by pipetting 100 μL into the flow tube for surface staining. […]

[3] = serum 3 hours after ConA injection

COc1ccc(C=CC(=O)O)cc1O [isoferulic acid, 3-hydroxy-4-methoxycinnamic acid]
IL-6 [1, 3]: 1422 ± 214.2 pg/mL
IL-12 [1, 3]: 183.7 ± 33.4 pg/mL
MCP-1 [1, 3]: 5708 ± 145.5 pg/mL
TNF-α [1, 3]: 260.4 ± 119.5 pg/mL
IFN-γ ([1]; serum 10 hours after ConA injection): 574 ± 70.4 pg/mL
Bone density (CIA arthritis mice; area above tibial plate of right hind limb): 9.5 ± 1.5 mg/cc
Bone volume (CIA arthritis mice; right hind limb): 0.0014 ± 0.0005 mm 3
Bone volume fraction (CIA arthritis mice; right hind limb): 0.095 ± 0.034
number of trabeculae (CIA arthritis mice; right hind limb): 2.042 ± 0.572 1/mm
Eotaxin (serum cytokines): 349.6 ± 85.4 pg/mL
G-CSF (serum cytokines): 4 ± 1.2 pg/mL
IL-6 (serum cytokines): 23.3 ± 21.6 pg/mL
IL-9 (serum cytokines): 15 ± 5.8 pg/mL
IL-12 (serum cytokines): 21.9 ± 3.5 pg/mL
IL-17A (serum cytokines): 4.9 ± 3.1 pg/mL
IP-10 (serum cytokines): 52.8 ± 20.8 pg/mL
MCP-1 (serum cytokines): 139.3 ± 43.4 pg/mL
MCP-3 (serum cytokines): 151.9 ± 20 pg/mL
MIP-1α (serum cytokines): 2.4 ± 0.6 pg/mL
MIP-1β (serum cytokines): 3.2 ± 1.1 pg/mL
IFN-γ (serum cytokines; isoferulic acid 5 mg/kg): 120.6 ± 37.1 pg/mL
proportion of granulocytes, Bone marrow [2]: 44.6 ± 5.1 %
proportion of granulocytes, spleen [2]: 9 ± 4.4 %
